Assay results as given in US8557233B2, “Probiotic bifidobacterium strains” (Alimentary Heath Limited, priority 2007, dated 2013).

Tested on: B. longum AH1206
Experiment: Minimum inhibitory concentration (MIC) of antibiotics
Format: cell-based, Bifidobacterium longum
Conditions: against B. longum AH1206
Description: Antibiotic sensitivity profiles of the B. longum strain was determined using the ‘disc susceptibility’ assay. Cultures were grown up in the appropriate broth medium for 24-48 h spread-plated (100 μl) onto agar media and discs containing known concentrations of the antibiotics were placed onto the agar. Strains were examined for antibiotic sensitivity after 1-2 days incubation at 37° C. under anaerobic conditions. Strains were considered sensitive if zones of inhibition of 1 mm or greater were seen. The minimum inhibitory concentration (MIC) for each antibiotic was independently assessed.

minimum inhibitory concentration (MIC)	SMILES
0.32	CCC[C@@H]1C[C@@H](C(=O)N[C@@H]([C@H]2O[C@H](SC)[C@H](O)[C@@H](O)[C@H]2O)[C@H](C)Cl)N(C)C1 [clindamycin]
0.38	Cc1ncc([N+](=O)[O-])n1CCO [metronidazole]

SMILES	minimum inhibitory concentration (MIC)
CN[C@H](CC(C)C)C(=O)N[C@H]1C(=O)N[C@@H](CC(N)=O)C(=O)N[C@H]2C(=O)N[C@H]3C(=O)N[C@H](C(=O)N[C@H](C(=O)O)c4cc(O)cc(O)c4-c4cc3ccc4O)[C@H](O)c3ccc(c(Cl)c3)Oc3cc2cc(c3O[C@@H]2O[C@H](CO)[C@@H](O)[C@H](O)[C@H]2O[C@H]2C[C@](C)(N)[C@H](O)[C@H](C)O2)Oc2ccc(cc2Cl)[C@H]1O [vancomycin]	0.75
